Measurements as given in patent US11332438B2, “Creatine prodrugs, compositions and methods of use thereof” (Ultragenyx Pharmaceutical Inc., priority 2017, dated 2022).
Where two headings read alike, the source gives them in different places. Values belong to the compound of their own block, whether it stands above or below them.

Key:
[1] = rcm bond, Grubbs II, 50.0 °C
[2] = rcm bond, DCM, 50.0 °C
[3] = Chemical stability in simulated gastric fluid (SGF) without pepsin; format: physicochemical; conditions: Table 2A, 50 μM prodrug
Procedure, shortened: (§1)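 Incubations used 50 μM compound at 37 °C in phosphate buffered saline, fasted simulated intestinal fluid without pancreatin, or fasted simulated gastric fluid without pepsin.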

[4] = target: T1, recombinant human FAAH enzyme (rFAAH) (Homo sapiens, UniProt O00519); test: Direct prodrug cleavage with recombinant human FAAH enzyme (rFAAH): d3-Cr release and d3-Crn cyclization; format: biochemical; conditions: 200 μM prodrug, 3 h; result in words
T1 sequence (O00519 1-579): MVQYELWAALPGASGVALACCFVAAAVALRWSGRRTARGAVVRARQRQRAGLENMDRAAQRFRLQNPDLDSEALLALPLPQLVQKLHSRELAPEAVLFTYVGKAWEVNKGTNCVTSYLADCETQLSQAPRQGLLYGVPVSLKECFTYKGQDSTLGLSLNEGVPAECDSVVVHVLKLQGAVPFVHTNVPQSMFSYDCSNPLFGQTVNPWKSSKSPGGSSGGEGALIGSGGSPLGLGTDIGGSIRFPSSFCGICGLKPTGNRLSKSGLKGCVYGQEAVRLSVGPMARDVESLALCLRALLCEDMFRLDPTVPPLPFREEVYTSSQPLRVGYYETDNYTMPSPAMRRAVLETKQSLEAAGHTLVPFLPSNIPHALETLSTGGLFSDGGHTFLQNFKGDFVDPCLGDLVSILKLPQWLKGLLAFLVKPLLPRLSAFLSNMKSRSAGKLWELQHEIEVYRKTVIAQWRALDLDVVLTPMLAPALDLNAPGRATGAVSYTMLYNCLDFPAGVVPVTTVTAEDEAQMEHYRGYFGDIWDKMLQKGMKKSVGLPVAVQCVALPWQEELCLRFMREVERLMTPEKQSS
Experimental: (§2) For assessment of the ability of prodrugs to release creatine, and to release creatine preferentially to unwanted cyclization to creatinine, d3-labeled (deuterium labeled methyl group) prodrugs are incubated with brain homogenates (e.g., mouse, human) specially prepared to preserve FAAH activity or with rFAAH for direct cleavage study. The use of d3-labelled prodrugs is essential in order to distinguish prodrug-derived creatine (d3-creatine) from high concentrations of endogenous (non-labeled) creatine. […] Prodrugs are tested at final concentrations of 20 μM and 200 μM. Approximately 3-4 mg of homogenate is used for each reaction. Co-factor (NADPH) is included at a final concentration of 1 mM. FAAH activity is confirmed by conversion of 7-amino-4-methyl Coumarin-Arachidonamide to 7-amino-4-methyl Coumarin by fluorescent assay. Negative controls include incubations without brain homogenate/rFAAH (but with NADPH) or 65° C. heat inactivated brain homogenate/rFAAH to assess non-enzymatic prodrug cleavage under the conditions of the assay and FAAH inhibitor […] at the concentration of 1 μM. Prodrug incubations are prepared by addition of 8 μL of prodrug stock solution (500 or 5000 μM in DMSO or DMSO/methanol) to assay buffered, followed by addition of brain homogenate/rFAAH. […] The samples are centrifuged at 15890×g for 10 minutes at 4° C., followed by transfer of the supernatants for storage at −20° C. pending LC-MS/MS analysis. Sample supernatants are analyzed by LC-MS/MS for determination of d3-prodrug, d3-creatine and d3-creatinine levels.
(§3) Deuterated creatine prodrugs were tested in 3 different in vitro assays to assess d3-creatine (d3-Cr) release and cyclization to form d3-creatinine (d3-Crn). These assays were 1) direct cleavage with recombinant human FAAH enzyme (rFAAH), 2) cleavage in mouse brain homogenates (MBH), and 3) human brain homogenates (HBH).
(§4) Creatine prodrug cleavage efficiency was determined by percentage of net d3-Cr release in μM (positive reaction subtracted from negative control of no brain homogenate/rFAAH or inactivated brain homogenate/rFAAH) over nominal input concentration of 200 μM prodrug at 3 h. Propensity for creatinine cyclization was determined by percentage of d3-Crn generated in μM in positive reaction over nominal input concentration of 200 μM prodrug at 3 h.

[5] = Prodrug cleavage in human brain homogenates (HBH): d3-Cr release and d3-Crn cyclization; format: in vitro ADME; conditions: 200 μM prodrug, 3 h, % of nominal input
Experimental: as §2, §3, §4

ARPE-19 cells = test: Creatine prodrug uptake and d3-creatine release in ARPE-19 cells (Table 4A); format: cell-based, human; conditions: 50 μM, 6 h, cytosol fraction, corrected for total protein
Experimental: At the end of the incubation, supernatant will be collected from each well to assess prodrug recovery. Cells are then washed 3× with PBS. Plates, prodrugs in supernatant, prodrugs in serum-free medium are stored at −80° C. until harvest (within 5 days). On the day of extraction, 130 uL of lysis buffer (10 mM Tris pH 7.4) with EDTA-free protease inhibitors is added to each well and cells are removed using a cell scraper. Lysates are further homogenized using a handheld pestle and then centrifuged at 16,000 g, […], for 10 minutes to collect cytosol fraction. Pellets will be stored at −80° C. until further analysis. A 4× volume of stop solution (80% ACN/20% water) will be added to the cytosol fraction, supernatant and medium. Samples will be centrifuged at 15,890 g (13,000 rpm) at 4° C. for 10 mins. Supernatant will be collected and stored at −80° C. within 5 days prior to LC-MS/MS analysis. Dosing solutions for each prodrug (10 μM) will be assayed to verify concentration. Cells alone with vehicle will serve as controls to assess background signal for LC-MS/MS. Two independent runs of experiment will be conducted.
Nine fatty acid amide creatine prodrugs were tested in human ARPE-19 cells to assess prodrug uptake and d3-Cr release inside the cells. 50 μM of prodrug was incubated in culture medium with the cells and the cells were harvested at 6 h. Quantitation of prodrugs, d3-Cr (d3-creatine) and d3-Cm (d3-creatinine) in the cytosol fraction was corrected for total protein concentration.

[6] = Chemical stability in phosphate buffered saline (PBS); format: physicochemical; conditions: Table 2A, 50 μM prodrug
Procedure, shortened: as §1

[7] = Plasma stability, human plasma; format: in vitro ADME; conditions: Table 2A, 37 °C, read-out: Plasma Stability Human t1/2
Procedure, shortened: (§5)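 Half-life (min) from LC-MS/MS of acetonitrile-quenched samples taken at t=0, 2, 5, 15, 30 min. Compound dosed at 1 µM final into plasma pre-warmed to 37 °C, pH set to 7.4 where required; incubations at 37 °C.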

[8] = Chemical stability in simulated intestinal fluid (SIF) without pancreatin; format: physicochemical; conditions: Table 2A, 50 μM prodrug
Experimental: Chemical stability of creatine prodrugs in phosphate buffered saline (PBS), simulated intestinal fluid (SIF) without pancreatin, simulated gastric fluid (SGF) without pepsin were determined by LC-UV, LC-CAD, LC-UV-CAD or LC-MS/MS as appropriate. Creatine prodrugs of the present disclosure (50 μM) were incubated at 37° C. according to described protocols and prodrug levels were compared between t=0, t=15, t=60, and t=120 mins by peak area ratio to determine the percentage remained at t=120 mins (2 h).
Protocol for PBS, SIF and SGF stability for screening:
Prodrugs (50 μM) were incubated in PBS, FaSSIF (Biorelevant) or FaSSGF (Biorelevant) at 37° C.

[9] = Plasma stability, mouse plasma; format: in vitro ADME; conditions: Table 2A, 37 °C, read-out: Plasma Stability Mouse t1/2
Procedure, shortened: as §5

Compound: [2H]C([2H])([2H])N1CC(=O)OCCCCCCCC/C=C/CCCCCCCC(=O)NC1=NC(=O)OCc1ccccc1
ring closure, yield of all isomers ([1]; from [2H]C([2H])([2H])N(CC(=O)OCCCCCCCCC=C)C(=NC(=O)OCc1ccccc1)NC(=O)CCCCCCCC=C, dichloromethane, 1.79 mM): 78%

Compound: CN1CC(=O)OC(C)(C)CC=CCCCCCCCC(=O)NC1=NC(=O)OCc1ccccc1
ring closure, isolated yield ([2]; from [2H]C([2H])([2H])N(CC(=O)OC(C)(C)CC=C)/C(=N\C(=O)OCc1ccccc1)NC(=O)CCCCCCCC=C, 18-membered ring, Grubbs II (10 mol%), 2.0 mM, 2.0 h): 79%

Compound: [2H]C([2H])([2H])N1CC(=O)OC2(CCC=CCCCCCC(=O)N/C1=N/C(=O)OCc1ccccc1)CCC2
ring closure, yield of all isomers ([1]; from [2H]C([2H])([2H])N(CC(=O)OC1(CCC=C)CCC1)/C(=N\C(=O)OCc1ccccc1)NC(=O)CCCCCC=C, dichloromethane, 2.4 mM): 33%

Compound: [2H]C([2H])([2H])N1CC(=O)OCCCCCCCC/C=C/CCCCCCCC(=O)N/C1=N/C(=O)OCc1ccccc1
ring closure, isolated yield ([2]; from [2H]C([2H])([2H])N(CC(=O)OCCCCCCCCC=C)/C(=N\C(=O)OCc1ccccc1)NC(=O)CCCCCCCC=C, 24-membered ring, Grubbs II (10 mol%), 1.79 mM, 2.0 h): 78%

Compound: CC1CC=CCCCCCCCC(=O)NC(=NC(=O)OC(C)(C)C)N(C)CC(=O)O1 (centres unmarked)
ring closure, isolated yield ([2]; from [2H]C([2H])([2H])N(CC(=O)OC(C)CC=C)C(=NC(=O)OC(C)(C)C)NC(=O)CCCCCCCC=C, 18-membered ring, Grubbs II, 2.0 h, 2 steps): 53%

Compound: [2H]C([2H])([2H])N(C(N)=NC(=O)OCc1ccccc1)N(CC(=O)O)C(=N)NC(=O)CCCCCC=C
ring closure, isolated yield ([2]; the molecule shown is the open-chain precursor, 17-membered ring, Grubbs II (10 mol%), 2.4 mM): 33%

Compound: CN1CC(=O)OC(C)(C)CCCC=CCCC(=O)NC1=NC(=O)OCc1ccccc1
ring closure, isolated yield ([2]; from [2H]C([2H])([2H])N(CC(=O)OC(C)(C)CCCC=C)C(=NC(=O)OCc1ccccc1)NC(=O)CCC=C, 15-membered ring, Grubbs II): 50%

Compound: [2H]C([2H])([2H])N1CC(=O)OC2(CC/C=C/CCCCCC(=O)N/C1=N/C(=O)OCc1ccccc1)CCOC2 (centres unmarked)
ring closure, isolated yield ([2]; from [2H]C([2H])([2H])N(CC(=O)OC1(CCC=C)CCOC1)/C(=N\C(=O)OCc1ccccc1)NC(=O)CCCCCC=C, 17-membered ring, Grubbs II (10 mol%), 1.95 mM, 2.0 h): 78%

Chemical Stability SGF, no enzyme % T0 at 2 hours at 37 °C. [3]: 102% | Prodrug Cleavage rFAAH d3-Crn release (yes/no) [4]: yes | Prodrug Cleavage rFAAH net d3-Cr release (yes/no) [4]: no | Prodrug Cleavage Human BH d3-Crn release [5]: 22.0% | Prodrug Cleavage Human BH net d3-Cr release ([5]; negative control subtracted): 0.4% | d3-Cr, Cellular Uptake (ARPE-19 cells): 0.74 nmol/mg protien | d3-Crn, Cellular Uptake (ARPE-19 cells): 1.03 nmol/mg protien | prodrug, Cellular Uptake (ARPE-19 cells): BQL | Chemical Stability PBS % T0 at 2 hours at 37 °C. [6]: 54%
Compound: Cl.[2H]C([2H])([2H])N(CC(=O)OC(C)C)C(=N)NC(=O)CCCCCCC/C=C\CCCCCCCC [Compound 45]

Compound: [2H]C([2H])([2H])N1CC(=O)OC2(CC/C=C/CCCCCC(=O)NC1=NC(=O)OCc1ccccc1)CCOC2 (centres unmarked)
ring closure, yield of all isomers ([1]; from [2H]C([2H])([2H])N(CC(=O)OC1(CCC=C)CCOC1)C(=NC(=O)OCc1ccccc1)NC(=O)CCCCCC=C, dichloromethane, 1.95 mM): 78%

Chemical Stability SGF, no enzyme % T0 at 2 hours at 37 °C. [3]: 111% | Chemical Stability PBS % T0 at 2 hours at 37 °C. [6]: 0% | half-life [7]: < 5 min | Chemical Stability SIF, no enzyme % T0 at 2 hours at 37 °C. [8]: 45% | half-life [9]: < 5 min
Compound: [2H]C([2H])([2H])N(CC(=O)OCC)C(=N)NC(=O)CCCCCCCCCCCC [Compound 46]

Compound: [2H]C([2H])([2H])N1CC(=O)OCCCC/C=C\CCCCCCCC(=O)N/C1=N/C(=O)OC(C)(C)C
ring closure, isolated yield ([2]; from [2H]C([2H])([2H])N(CC(=O)OCCCCC=C)C(=NC(=O)OC(C)(C)C)NC(=O)CCCCCCCC=C, 20-membered ring, Grubbs II): 90%

Compound: [2H]C([2H])([2H])N1CC(=O)OC(C)C=CCCCCCCCC(=O)N/C1=N/C(=O)OC(C)(C)C (centres unmarked)
ring closure, yield of all isomers ([1]; from [2H]C([2H])([2H])N(CC(=O)OC(C)C=C)/C(=N\C(=O)OC(C)(C)C)NC(=O)CCCCCCCC=C, DCM, 2.28 mM): 77%

Compound: (Z)-tert-butyl-((E)-17-ethyl-4-trideuteriomethyl-2,7-dioxo-1-oxa-4,6-diazacycloheptadec-15-en-5-ylidene) carbamate
ring closure, isolated yield ([2]; 17-membered ring, Grubbs II (20 mol%), 2.82 mM): 86%

Compound: [2H]C([2H])([2H])N1CC(=O)OC(C)(C)CC=CCCCCCCCC(=O)N/C1=N/C(=O)OCc1ccccc1
ring closure, yield of all isomers ([1]; from [2H]C([2H])([2H])N(CC(=O)OC(C)(C)CC=C)/C(=N\C(=O)OCc1ccccc1)NC(=O)CCCCCCCC=C, dichloromethane, 2.0 mM): 79%

Compound: [2H]C([2H])([2H])N1CC(=O)OC(CC)/C=C/CCCCCCCC(=O)N/C1=N/C(=O)OC(C)(C)C (centres unmarked)
ring closure, yield of all isomers ([1]; from [2H]C([2H])([2H])N(CC(=O)OC(C=C)CC)/C(=N\C(=O)OC(C)(C)C)NC(=O)CCCCCCCC=C, DCM, 2.82 mM): 86%

Compound: [2H]C([2H])([2H])N1CC(=O)OC2(CCC=CCCCCCC(=O)NC1=NC(=O)OCc1ccccc1)CCCC2
ring closure, yield of all isomers ([1]; from [2H]C([2H])([2H])N(CC(=O)OC1(CCC=C)CCCC1)C(=NC(=O)OCc1ccccc1)NC(=O)CCCCCC=C, dichloromethane, 1.95 mM): 84%
